# Test results reported in patent US20150250824A1, “METHODS AND COMPOSITIONS FOR EXPANSION OF STEM CELLS AND OTHER CELLS” (The Research Foundation For The State University Of New York, priority 2014, published 2015).
# “Also recorded” adds a separate entry of the source. Where a name gives a salt, the structure may show the parent alone. Read-outs that look alike come from different tables or passages of the source.
# Legend:
# [1] = test system: CD34+ cells isolated from human umbilical CB; assay type: cell-based; details: for number of large megakaryocytes / shortening of maturation compared to control: 4-5 day culture; for ploidy development compared to control or 616452 alone: 4 and 8 days induction; for CD41 population compared to control: 4 days of culture, flow analysis
# Procedure: Megakaryocytes derived from CB in vitro are usually smaller than megakaryocytes derived from bone marrow or mobilized peripheral blood from adults. Small megakaryocyte size may contribute to delayed platelet engraftment when cord blood is used for bone marrow transplantation. To test whether 616452 is able to increase fetal/neonatal megakaryocyte size and ploidy, CD34+ cells isolated from human umbilical CB were cultured in StemSpan SFEM containing SCF, TPO and Flt-3 Ligand. CB CD34+ cells in the presence of TPO after 4 or 8 day culture, were morphologically consistent of a relative homogenous population of small cells (FIG. 19A) and megakaryocytic features such as large nuclear size and cytoplasmic mass were hardly detectable.
# One of the unique characteristics of megakaryocytes is the ploidy development of their nuclei, which can be easily measured using propidium iodide (PI), a fluorescent intercalating agent that binds to nucleic acids. Megakaryocyte (Mk) ploidy correlates well with their maturation and platelet production. […] Out of 10,000 events, the control cells only elicited only 1 cell with a ploidy of 16N and nothing thereon greater (FIG. 20A).
# [2] = test system: CD34+ cells isolated from peripheral blood of G-CSF-mobilized donors; assay: Ex vivo culture of mobilized peripheral blood CD34+ cells with compounds, CD34/CD38 flow cytometry; assay type: cell-based, human; details: 11 days, minimal cytokines; for effect on CD34+CD38+ and CD34+CD38− populations: C, 6, F at 10 μM, Z at 100 nM
# Procedure: CD34+ cells were isolated from cord blood or from peripheral blood of G-CSF-mobilized adult donors and cultured as follows. Mononuclear cells (MNCs) were isolated using a simple red blood cell lysis (15 minutes at room temperature using BD PharmLyse) or using Ficoll-Paque density gradient centrifugation (Jaatinen and Laine, Current Protocols Stem Cell Biol. 1:2A.1.1-2A.1.4. (2007)). The cells were then incubated with MACS CD34+ Microbead kit (Miltenyi Biotec, Auburn, Calif.) and run through a magnetic column resulting in selection for CD34+ cells. […] Human cortex neural stem cell (hcx NSC) cells were purchased from Millipore.
# (§1) CD34+ cells were cultured in […] medium ([…] Technologies, Vancouver, BC, Canada) supplemented with 10% FBS, 100 ng/ml hSCF (human stem cell factor), 100 ng/ml hTPO (human thrombopoietin), 100 ng/ml hFLT-3 ligand (Human Fms-related Tyrosine Kinase 3) (Peprotech, Rocky Hill, N.J., USA) and 100 U/ml penicillin/streptomycin (Gibco). Human cortex Neural Progenitor Cell line (hcx NSC) was maintained in ReNcell medium: ReNcell NSC Maintenance medium (Millipore) supplemented with 20 ng/ml human EGF, 20 ng/ml human bFGF (Peprotech) and 100 U/ml penicillin/streptomycin. For expansion of cells targeted for cell sorting, we used the same media containing a different cytokine cocktail of 100 ng/ml SCF, TPO and 10 ng/ml IL-3.
# Cells were centrifuged for 5 minutes at 200 G at 4° C. Cells were resuspended with CD34, 38 and/or 41 conjugated antibodies for 30 minutes on ice. Cells were then washed with 2 ml of PBS and centrifuged for 5 minutes at 200 G at 4° C. The final pellet was resuspended using 300 μl of 2% formalin.
# CD34+ cells isolated from peripheral blood of G-CSF-mobilized donors were cultured for 11 days with minimal cytokines and the 4 chemical cocktail (C6FZ). […] The population bearing CD34+/CD38− is associated with long-term repopulating HSCs.
# CD34+ cells isolated from the peripheral blood of G-CSF-mobilized donors were next cultured for 11 days with minimal cytokines and the individual compounds, C, 6, F and Z (FIG. 13).
# [3] = test system: hematopoietic stem/progenitor cells; assay: Dose determination of BIX, Z and UNC on expansion of hematopoietic stem/progenitor cells; assay type: cell-based; details: at concentrations of 0.25×
# Excerpt: The inventors have also determined the dose for BIX, Z and UNC on the expansion of hematopoietic stem/progenitor cells. […] UNC (UNC0638) and BIX are quite similar in their impact of expansion of hematopoietic stem/progenitor cells.
# human CB CD34+ cells = assay: Ex vivo expansion of cord blood CD34+ cells in HSC media with small molecules; assay type: cell-based; details: for retention/expansion of CD34+CD38− stem/progenitor cells compared to control: 5 days, HSC media with SCF, TPO, Flt-3 ligand 100 ng/ml each, Z 100 nM, Bix 1 μM, T 10 μM
# Procedure: as §1
# Cells were centrifuged for 5 minutes at 200 G at 4° C. Cells were resuspended with CD34, 38 and/or 41 conjugated antibodies for 30 minutes on ice. Cells were then washed with 2 ml of PBS and centrifuged for 5 minutes at 200 G at 4° C. The final pellet was resuspended using 300 μl of 2% formalin. […]
# Recent studies in iPS cell reprogramming have discovered numerous small molecules modulating iPS cell reprogramming through different cellular mechanisms. These could include cellular signaling pathways (such as Wnt signaling and TGF beta) and epigenetic mechanisms, such as DNA methyltransferases, histone methylation and histone deacetylation. We have screened small molecule modulators involving these cellular mechanisms for hematopoietic stem/progenitor cell expansion. […] CB CD34+ cells were cultured for 5 days in HSC media containing SCF, TPO, and Flt-3 ligand at 100 ng/ml each. […] Bix (BIX01294), trihydrochloride hydrate is a histone methyltransferase (HMTase) G9a inhibitor (FIG. 15).
# Previously we have shown that stem cell protein is a robust stimulator for hematopoietic stem/progenitor cell expansion via recruitment of various epigenetic factors such as histone deacylases and DNA methyltransferases (Yang et al, J Biol Chem. 2012, 13; 287(3): 1996-2005). […] Based on this finding, we screened the LSD1 inhibitors for the expansion of hematopoietic precursor cells. hUCB CD34+ cells were cultured for 5 days in HSC media containing SCF, TPO, and Flt-3 ligand at 100 ng/ml each.
# eiNSCs = assay: In vitro expansion of episome-derived induced neural stem cells (eiNSCs); assay type: cell-based, human; details: added after the first passage in ReNcell medium
# Procedure: For reprogramming of CD34+ cells to iNSCs by an OCT4 episomal vector, the CD34+ cells were transduced with an EBNV1-based pCEP4-OCT4 expression plasmid in which the CMV promoter is replaced by the SFFV promoter. Cells were transduced by electroporation using the Human CD34 Cell NUCLEOFECTOR® Kit (Lonza, Koln, Germany). Post-transduction, cells were incubated with hypoxia (5% 02), following the lentivirus reprogramming strategy described above. Dzep (3-deazaneplanocin, Sigma) was added to the solution after the first passage in ReNcell medium to maintain the cells for a longer period before senescence/quiescence.
# While direct reprogramming using lentivirus does provide an increasingly popular approach that bypasses the iPS cell state, the issue of random integration of foreign DNA into the host's genome still remains. We attempted to generate iNSCs from CB by an integration-free method. CB CD34^+ were electroporated with an episomal vector containing a high expression OCT4 gene. […] In addition, eiNSCs are able to differentiate into neural and glial cells as neuron and astrocyte markers were observed after random differentiation. However, eiNSCs are slower in growth rate with a doubling time of approximately 36 hours where iNSCs have a doubling time of approximately 24 hours. […]
compound,measurement,setting,value
"NC(=O)c1ccc(-c2nc(-c3ccc4c(c3)OCO4)c(-c3ccccn3)[nH]2)cc1 [SB431542, 4-[4-(1,3-benzodioxol-5-yl)-5-(2-pyridinyl)-1H-imidazol-2-yl]benzamide]",number of large megakaryocytes / shortening of maturation compared to control,[1],little or no effect
same,ploidy development compared to control or 616452 alone,[1],no significant deviation in ploidy development
same,ploidy development compared to control or 616452 alone,[1]; listed as SB431452,no significant difference
same,CD41 population compared to control,[1],marginal decrease in the CD41 population
"C=C[C@@]1(C)CC(=O)[C@]2(O)[C@@]3(C)[C@@H](O)CCC(C)(C)[C@@H]3[C@H](O)[C@H](OC(C)=O)[C@@]2(C)O1 [F, 7β-acetoxy-8,13-epoxy-1α,6β,9α-trihydroxylabd-14-en-11-one]",effect on CD34+CD38+ and CD34+CD38− populations,[2],induce a significant proportion of CD34+CD38+ population; also recorded: induce a significant proportion of CD34+CD38+ cells; also recorded: induced a significant expansion of CD34+CD38+
"COc1cc2c(NC3CCN(C(C)C)CC3)nc(C3CCCCC3)nc2cc1OCCCN1CCCC1 [UNC, 2-Cyclohexyl-6-methoxy-N-[1-(1-methylethyl)-4-piperidinyl]-7-[3-(1-pyrrolidinyl)propoxy]-4-quinazolinamine]",toxicity,[3],no significant toxicity
"Cc1c[nH]c(-c2cnc(NCCNc3ccc(C#N)cn3)nc2-c2ccc(Cl)cc2Cl)n1 [CHIR99021, 6-[[2-[[4-(2,4-dichlorophenyl)-5-(5-methyl-1H-imidazol-2-yl)-2 pyrimidinyl]amino]ethyl]amino]-3-pyridinecarbonitrile]",effect on CD34+CD38+ and CD34+CD38− populations,[2]; listed as C,does not have much of effect; also recorded: did not have much of effect
same,proliferation and maturation of CD34+ cells compared to control,[2]; listed as C,"rapidly proliferates bone marrow CD34 cells leading to their maturation at a significantly rapid rate compared to control; also recorded: rapidly proliferated the bone marrow CD34+ cells, leading to their maturation at a significantly rapid rate compared to control"
"Nc1nccc2c1ncn2[C@@H]1C=C(CO)[C@@H](O)[C@H]1O [Z, 5R-(4-amino-1H-imidazo[4,5-c]pyridin-1-yl)-3-(hydroxymethyl)-3-cyclopentene-1S,2R-diol]",effect on CD34+CD38+ and CD34+CD38− populations,[2],best effect enhancing both CD34+CD38- and CD34+ and CD38+ positive cells; also recorded: ability to enhance both the population of single positive (CD34+CD38−) and double positive (CD34+CD38+) cells; also recorded: the most effects on the CD34+CD38− population
same,retention/expansion of CD34+CD38− stem/progenitor cells compared to control,human CB CD34+ cells,retained a large portion of CD34+CD38− stem/progenitor cells; also recorded: enhances retention and expansion of CD34+CD38-population; also recorded: promotes hematopoietic precursor immunophenotype and expands CD34+CD38− population
same,additional passages of eiNSC growth,eiNSCs,two
same,toxicity,[3],no significant toxicity
"Cl.N[C@H]1C[C@@H]1c1ccccc1 (racemic) [T, (±)-trans-2-Phenylcyclopropylamine hydrochloride]",fold increase in CD34+CD38− cells compared to the input,"human CB CD34+ cells; 10 μM, 5 day culture",approximately 60 fold
same,fold increase in total cell counts compared to the input,"human CB CD34+ cells; 10 μM, 5 day culture",~45 fold
same,retention/expansion of CD34+CD38− stem/progenitor cells compared to control,human CB CD34+ cells; hydrochloride,retained a significant fraction of CD34+CD38− cells and expanded this population; also recorded: promotes hematopoietic precursor immunophenotype and expands CD34+CD38− population
"Cc1cccc(-c2nn(C(=S)Nc3ccccc3)cc2-c2ccnc3ccccc23)n1 [compound 616454, 3-(6-Methylpyridin-2-yl)-4-(4-quinolyl)-1-phenylthiocarbamoyl-1H-pyrazole]",number of large megakaryocytes / shortening of maturation compared to control,[1],little or no effect
same,CD41 population compared to control,[1],no any significant difference from control
"COc1cc2nc(N3CCCN(C)CC3)nc(NC3CCN(Cc4ccccc4)CC3)c2cc1OC [Bix, 2-(Hexahydro-4-methyl-1H-1,4-diazepin-1-yl)-6,7-dimethoxy-N-[1-(phenylmethyl)-4-piperidinyl]-4-quinazolinamine trihydrochloride hydrate]",retention/expansion of CD34+CD38− stem/progenitor cells compared to control,human CB CD34+ cells; trihydrochloride hydrate,retained a large portion of CD34+CD38− stem/progenitor cells; also recorded: enhances retention and expansion of CD34+CD38-population
same,toxicity,[3],no significant toxicity
